For assay [1], the system named is vit D-induced cardiovascular calcification in rats. Nature of the assay: Inhibition of vit D-induced (300,000 IU/kg x 3) cardiovascular calcification by s.c. IP6. The class given is in vivo, male SD rats. The conditions noted are these: s.c. On the procedure: Experimental: male SD rats were divided into 9 groups. Two of said groups (sham and control groups) received s.c. saline 2 ml/kg; 6 groups received s.c. […] One group was treated with a s.c. Alzet pump loaded with 200 mg/ml IP6. Calcification was induced by oral administration of 300,000 IU/kg vitamin D (2 ml/kg) for 3 days starting on treatment day 3. […] The calcium content in heart, aorta and kidneys was determined after treatment for 7 days.

A short description of assay [2]: HAP crystallisation induction period (synergy with other treatments). The class given is physicochemical. The conditions noted are these: drug effect simulated by modifying calcium and phosphate concentrations; control 8 minutes. As to the method: Experimental: hydroxyapatite (HAP) was crystallised by mixing appropriate concentrations of calcium and phosphate at pH 7.4. The effect of cinacalcet and sevelamer was simulated by suitably modifying the calcium and phosphate concentrations. The induction period (time required for HAP to begin to crystallise) was recorded as the analytical signal.

The structures appear in SMILES notation.

`O=P([O-])([O-])OP(=O)([O-])[O-].[Na+].[Na+].[Na+].[Na+]` [pyrophosphate, sodium pyrophosphate, reference compound]: the “dose causing the same effect as 10 mg/kg IP6” value in assay [1] was 28 mg/kg. Further, in assay [1] (at higher doses than IP6), the “efficacy against calcification (in words)” value is given as “good efficacy”.

With `C[C@@H](NCCCc1cccc(C(F)(F)F)c1)c1cccc2ccccc12` [cinacalcet, reference compound], the “induction time (without IP6)” value in assay [2] is 14 min.

The values above are taken from EP2974714B1, “USE OF DERIVATIVES WITH C-O-P BONDS IN PATIENTS WITH RENAL FAILURE” (LABORATORIS SANIFIT, S.L., priority 2013, dated 2014).
